Experimental data as given in patent US9821072B2, “Activated neurotensin molecules and the uses thereof” (priority 2014, dated 2017).

Assays:
[1] = target: T1, human neurotensin receptor type 1 (hNTR-1) (Homo sapiens, UniProt P30989); assay: Competition binding assay with [3H]-neurotensin on human NTR-1 membranes (CHO cells); settings: read-out: NTR-1 binding affinity Ki, Human NTR-1
T1 construct: purchased PerkinElmer; host or cells: CHO cells stably expressing human NTR-1 (membrane homogenates)
T1 sequence (P30989 whole entry): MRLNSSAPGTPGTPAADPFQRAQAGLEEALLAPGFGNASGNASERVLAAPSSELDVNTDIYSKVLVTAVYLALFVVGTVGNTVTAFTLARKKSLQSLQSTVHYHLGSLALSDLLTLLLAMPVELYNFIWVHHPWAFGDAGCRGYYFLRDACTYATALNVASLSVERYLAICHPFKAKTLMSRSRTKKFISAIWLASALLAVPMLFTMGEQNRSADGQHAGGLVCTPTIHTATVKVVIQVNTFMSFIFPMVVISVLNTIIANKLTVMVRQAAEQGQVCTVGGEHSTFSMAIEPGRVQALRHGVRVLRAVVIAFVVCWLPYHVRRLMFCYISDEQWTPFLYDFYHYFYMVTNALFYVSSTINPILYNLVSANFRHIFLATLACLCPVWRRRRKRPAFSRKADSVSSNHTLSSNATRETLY

[2] = target: T2, rat neurotensin receptor type 1 (rNTR-1) (Rattus norvegicus, UniProt P20789); assay: Competition binding assay with [3H]-neurotensin on rat NTR-1 membranes (HEK293 cells); settings: read-out: NTR-1 binding affinity Ki, Rat NTR-1
T2 construct: host or cells: HEK293 cells (membrane homogenates)
T2 sequence (P20789 whole entry): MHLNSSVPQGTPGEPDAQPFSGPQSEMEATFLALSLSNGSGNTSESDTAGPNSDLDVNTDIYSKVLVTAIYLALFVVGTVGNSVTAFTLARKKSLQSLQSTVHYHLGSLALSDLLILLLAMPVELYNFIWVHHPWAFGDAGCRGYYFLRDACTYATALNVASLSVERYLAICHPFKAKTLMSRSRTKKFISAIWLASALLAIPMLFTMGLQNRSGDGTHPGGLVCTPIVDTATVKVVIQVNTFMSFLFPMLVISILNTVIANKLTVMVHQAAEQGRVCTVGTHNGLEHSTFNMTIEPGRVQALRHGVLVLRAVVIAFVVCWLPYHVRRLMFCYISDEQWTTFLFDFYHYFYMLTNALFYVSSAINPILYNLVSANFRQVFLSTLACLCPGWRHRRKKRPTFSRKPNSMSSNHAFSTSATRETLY

[3] = tested on: Swiss (CD-1) mice; assay: Hypothermic response (rectal body temperature) after i.v. bolus in Swiss (CD-1) mice; assay type: in vivo, mouse
[4] = In vitro blood stability in freshly collected mouse blood (LC-MS/MS); assay type: in vitro ADME, Swiss (CD-1) mouse; settings: whole blood, 2 μM, 37° C.
[5] = tested on: mice; assay: Writhing test (acetic acid, acute visceral pain) in mice; assay type: in vivo, mouse; settings: 30 min before acetic acid i.p.
Method: In order to evaluate the antinociceptive potential of activated NT drugs, compound XIV was tested in an experimental pain model in mice. The writhing test was used as a model of acute visceral pain to assess the effect of compound XIV after intravenous administration. Given that the time to maximal decrease in body temperature in mice receiving compound XIV was around 45 min post-injection, we assumed similar pharmacodynamic kinetics in this pain model. Mice first received intravenous (bolus) injection of compound XIV at increasing dose levels, followed 30 min thereafter by intraperitoneal injection of acetic acid 0.7% (10 mL/kg). In control mice, intraperitoneal injection of acetic acid produces characteristic and quantifiable abdominal stretches (elongation of the body and extension of forelimbs) as early as 2-3 minutes following injection and reaching a peak between 5 and 15 min following injection. This time window was therefore used to evaluate the number of abdominal stretches (writhes counted over 10 min observation) in mice administered with either saline or compound XIV at 0.5, 1 or 5 mg/kg eq. NT.

[6] = tested on: mice; assay: Tolerance / toxicity after i.v. bolus in mice (MTD, LD50); assay type: in vivo, mouse
Method: NT, which is similar to that measured for compound I and compound II. […] When injected at 20 mg/kg eq. NT in mice, compound XIV was still well-tolerated with no additional safety concerns. […] NT. The Maximal Tolerated Dose (MTD) was 40 mg/kg eq. […] Given that the MED was about 0.1 mg/kg eq. NT, this pharmacodynamic/toxicity profile constitutes an excellent safety prerequisite since i) it prevents potentially lethal overdose due to exacerbated pharmacological hypothermia, and ii) using the intravenous (bolus) mode of administration, the therapeutic window, which is expressed as the fold increase between the MED and MTD, is about 400, with 4-fold security between the dose level eliciting a maximal hypothermic response and that inducing mild/non-lethal toxicity.

[7] = tested on: FVB/N mice with KA-induced status epilepticus; assay: Kainic acid-induced status epilepticus model (body temperature, seizures, neurodegeneration, neuroinflammation, mossy fiber sprouting); assay type: in vivo, mouse; settings: 30 min after SE onset; first of two values, presumably 2 mg/kg eq. NT

CCC(=O)N[C@@H]1CSSC[C@@H](C(=O)NCCOCCOCCOCCOCCOCCOCCC(=O)N[C@@H](CCCNC(=N)N)C(=O)N[C@@H](CCCNC(=N)N)C(=O)N2CCC[C@H]2C(=O)N[C@@H](Cc2ccc(O)cc2)C(=O)N[C@H](C(=O)N[C@@H](CC(C)C)C(=O)O)[C@@H](C)CC)NC(=O)CN(C)C(=O)[C@H](CCCNC(=N)N)NC(=O)[C@H](CC(C)C)NC(=O)[C@H](CCCNC(=N)N)NC(=O)[C@@H]2CCCCN2C(=O)[C@H](CCSC)NC1=O [Compound XIV, Pr-cMPipRLRSarC-PEG6-RRPYIL-OH]
Ki [1]: 0.22 ± 0.06 nM
Ki [2]: 1.06 ± 0.47 nM
Maximal decrease in body temperature ([3]; 10 mg/kg eq. NT i.v. bolus, 60 min post-injection): −6.7 °C
hypothermic response at 20 mg/kg eq. NT versus 10 mg/kg eq. NT ([3]; 20 mg/kg eq. NT, mice): No further decrease in body temperature
Minimal Effective Dose (MED), hypothermic effect ([3]; i.v. bolus): about 0.1 mg/kg eq. NT
ED50, hypothermic effect ([3]; i.v. bolus, dose-response): 1.53 mg/kg eq. NT
half-life [4]: 1.6 h
antinociceptive effect on writhe count ([5]; 0.5 mg/kg eq. NT i.v.): no effect
reduction of the writhe count ([5]; 1 mg/kg eq. NT i.v.): 50%
reduction of the writhe count ([5]; 5 mg/kg eq. NT i.v.): 64%
tolerance ([6]; 20 mg/kg eq. NT, mice): well-tolerated
security between dose eliciting maximal hypothermic response and dose inducing mild/non-lethal toxicity ([6]; i.v. bolus): 4 fold
therapeutic window (fold increase between the MED and MTD) ([6]; i.v. bolus): about 400 fold
Maximal Tolerated Dose (MTD) ([6]; i.v. bolus, mice): 40 mg/kg eq. NT
LD50 (Lethal Dose, 50%) ([6]; i.v. bolus, mice, not reached): > 40 mg/kg eq. NT
mean decrease in body temperature compared to SE animals (first value) [7]: −2.5 °C
